From patent publication US9120764B2, “Chromene derivatives” (Consejo Superior de Investigaciones Cientificas, priority 2010, dated 2015)

Tests used:
[1] = biological target: T1, interaction between TCR, through CD3ε, and the Nck SH3.1 domain (Homo sapiens, UniProt P16333); test: In vitro "pull-down" assay of the TCR-Nck interaction; type: binding; conditions: Jurkat lysate, GST-SH3.1(Nck) on agarose beads, Western blot densitometry; FIG. 1
T1 construct: the amino-terminal human Nck1 SH3.1 domain; made in house; host or cells: bacterial cultures (GST-SH3.1); the TCR/CD3ε is endogenous, from a lysate of human Jurkat cells
Method: To do so, 10 million from human T cell line Jurkat were stimulated with 10 μg/ml of an anti-CD3 antibody for 5 minutes at 37° C. After the stimulation, the cells were lysed in isotonic buffer containing 0.3% Brij96 detergent. After removing the nucleus and other cellular debris by centrifugation, cell lysate aliquots were incubated with 10 μl of agarose beads covalently bound to glutathione and bound in turn to 5 μg of purified GST-SH3.1 (Nck) protein from bacterial cultures. The GST-SH3.1(Nck) protein corresponds to a fusion protein between glutathione S-transferase (GST) and the amino-terminal human Nck1 SH3.1 domain. Each of the aliquots of the cell lysate were incubated with GST-SH3.1 (Nck) in the presence of the indicated concentrations of inhibitors. After incubation, the agarose beads were collected by centrifugation and the quantity of TCR associated with GST-SH3.1 (Nck) was assessed by SDS-PAGE and Western blot with an antibody against TCR CD3ζ subunit. The quantification of the ratio between the quantity of TCR joined to GST-SH3.1 (Nck) in the presence of each of the concentrations of inhibitors, with respect to the amount that is attached in the absence of inhibitors, was evaluated by densitometry and is expressed under each rail as a percentage (FIG. 1).

primary T lymphocytes [2] = test: Inhibition of the proliferation of T lymphocytes caused by stimulation of the TCR (CFSE, flow cytometry); type: cell-based, human; conditions: anti-CD3 10 μg/ml, 3 days, CFSE proliferation index; FIG. 3
Method: The effect of compounds ECRA20, ECRA24 and CBM-1 on the ability of the TCR to induce T lymphocyte proliferation was evaluated in primary T lymphocytes obtained from blood of healthy human donors. T lymphocytes were marked permanently with the fluorescent compound Carboxyfluorescein succinimidyl ester (CFSE) and incubated for 3 days at 37° C. on 96-well plates coated with antibody anti-CD3 (10 μg/ml) in the presence of the indicated concentrations of the compounds. Proliferation index was calculated from the intensity of fluorescence of CFSE measured by flow cytometry. As the cells divide they lose CFSE fluorescence because original fluorescence is divided between the daughter cells. This way each division is followed by a […] of CFSE per cell. So it is possible to calculate the number of divisions. Proliferation index is calculated by dividing the sum of the number of divisions by the calculated number of original parent cells, which have not divided any time. Black square indicates the rate of proliferation of lymphocytes stimulated and not treated with compounds and white square lymphocytes not stimulated with anti-CD3 (FIG. 3).

primary T lymphocytes [3] = test: Inhibition of the production of cytokines by T lymphocytes caused by stimulation of the TCR; type: cell-based, human; conditions: anti-CD3 10 μg/ml plus anti-CD28 1 μg/ml; IFNγ at 24 hours, TNFα, IL6, IL17a at 48 hours; FIG. 4
Method: The effect of the compounds ECRA20, ECRA24, and CBM-1 on the ability of the TCR to induce the secretion of cytokines by T lymphocytes, was evaluated in primary T lymphocytes obtained from blood of healthy human donor. Lymphocytes were stimulated with 10 μg/ml of anti-CD3 plus 1 μg/ml of anti-CD28 in the presence of the indicated quantities of the compounds and the cell supernatants were collected at 24 hours (IFNγ) and 48 hours (TNFα, IL6, and IL17a) to measure the concentration of cytokines secreted in the medium (FIG. 4).

effect on the interaction between TCR, through CD3ε, and the Nck SH3.1 domain [1] | Structure (SMILES) | proliferation of T lymphocytes in response to stimulation of the TCR (primary T lymphocytes [2]) | production of cytokines by T lymphocytes caused by stimulation of the TCR (primary T lymphocytes [3])
inhibitory effect | COc1ccc2c(c1)C(c1ccc(F)cc1)=C(CN1CCCC1)CO2 [ECRA24, 1-((4-(4-Fluorophenyl)-6-methoxy-2H-chromen-3-yl)methyl)pyrrolidine] | suppress the proliferation of T lymphocytes | inhibit the production of cytokines
inhibitory effect | Fc1ccc(C2=C(CN3CCCC3)COc3ccccc32)cc1 [ECRA20, 1-((4-(4-Fluorophenyl)-2H-cromen-3-il)methyl)pyrrolidine] | suppress the proliferation of T lymphocytes | inhibit the production of cytokines
